Legend:
[1] = system: Rattus norvegicus; conditions: for LD50: acute, gavage, mortality
[2] = system: Folsomia candida; conditions: chronic/long-term; duration: 28 days; reproduction
[3] = system: Tagia sp.; conditions: chronic/long-term; duration: 56 days
[4] = system: Lepomis macrochirus; conditions: acute; duration: 96 hours; mortality
[5] = system: Landoltia sp.; conditions: acute; duration: 7 days; other
[6] = system: Daphnia magna; conditions: chronic/long-term; duration: 21 days; reproduction
[7] = system: Pimephales promelas; conditions: chronic/long-term; duration: 35 days; reproduction
[8] = system: Oryctolagus sp.; conditions: reproduction developmental; clinical signs
[9] = system: Oncorhynchus mykiss; conditions: acute; duration: 96 hours; mortality
[10] = system: Colinus virginianus; conditions: oral
[11] = system: Apis mellifera; conditions: acute, duration: 48 hours, mortality

`COC(=O)c1ccccc1S(=O)(=O)NC(=O)n1nc(OCC(C)O)n(C)c1=O` (stereo not given) [Propoxycarbazone-2-hydroxypropoxy] was tested, and the LD50 ([1]; oral) was greater than 5000 mg/kg-day and the NOAEL ([1]; short-term, duration: 28 days, oral, diet) was greater than 880 mg/kg-day.

Work on `CCCOc1nn(C(N)=O)c(=O)n1C` yielded an NOEC [2] of 10 mg/kg and an NOEC [3] of 316 mg/kg.

`CCCOc1nn(C(=O)NS(=O)(=O)c2ccccc2C(=O)O)c(=O)n1C` showed an LC50 [4] greater than 87.7 µg/mL and an NOEC [5] of 14.2 mg/L.

Work on `CCCOc1nn(C(=O)[N-]S(=O)(=O)c2ccccc2C(=O)OC)c(=O)n1C.[Na+]` [Propoxycarbazone-sodium] yielded an NOEC [6] of 13.8 mg/L, an NOEC [7] of 5.83 mg/L and an NOAEL [8] of 100 mg/kg-day. For the same compound, the LC50 [9] was greater than 77.2 µg/mL, the LD50 ([10]; acute, mortality) was greater than 2000 mg/kg-day and the NOEL ([10]; reproduction developmental, duration: 25 weeks, diet, reproduction) was 45 mg/kg-day. It also gave an LD50 ([1]; oral) greater than 5000 mg/kg-day, an NOAEL ([1]; chronic, duration: 2 years, clinical chemistry) of 43 mg/kg-day and an LD50 ([11]; dermal) greater than 100 µg/piece. For the same compound, the LD50 ([11]; oral, unspecified) was greater than 110 µg/piece, the NOEC [2] was 500 mg/kg and the NOEC [3] was 1.25 mg/kg.

Compound `O=C1NS(=O)(=O)c2cccc(O)c21` [4-hydroxy-1H-1,2-benzisothiazole-1,1,3(2H)-trione] has an NOEC [2] of 10 mg/kg and an NOEC [3] of 5 mg/kg.

— EPA's ToxValDB 9.5 (doi:10.2903/j.efsa.2016.4612)
